Values quoted from earlier work in PubChem BioAssay AID1259410 (Chemical Carcinogenesis Research Information System (CCRIS), 2018).

Test system: rodent tumor promotion studies, tumor incidence
Test: CCRIS tumor promotion studies

For `CCC1(c2ccccc2)C(=O)NC(=O)NC1=O`, the outcome (Carcinogen: 2-(ACETYLAMINO)FLUORINE, Doses [Carcinogen]: DIET, Doses [Promoter]: IN DIET, Route [Carcinogen]: ORAL, Route [Promoter]: ORAL, Species: RAT, Strain/Sex: MALE) is listed as “liver”, the outcome (Carcinogen: 3'-METHYL-4-DIMETHYLAMINOAZOBENZENE, Doses [Carcinogen]: DIET, Doses [Promoter]: IN DIET, Route [Carcinogen]: ORAL, Route [Promoter]: ORAL, Species: RAT, Strain/Sex: MALE) is listed as “liver” and the outcome (Carcinogen: 4-DIMETHYLAMINOAZOBENZENE, Doses [Carcinogen]: DIET, Doses [Promoter]: IN DIET, Route [Carcinogen]: ORAL, Route [Promoter]: ORAL, Species: RAT, Strain/Sex: MALE) is listed as “liver”. For the same molecule, the outcome (Carcinogen: DIETHYLNITROSAMINE [55-18-5], Doses [Carcinogen]: 90 MG/KG BW ONCE, Doses [Promoter]: 90 MG/KG BW DAILY FOR UP TO 76 WK STARTING 2 WK AFTER CARCINOGEN TREATMENT (STUDY DURATION: 76 WK), Route [Carcinogen]: IP INJECTION, Route [Promoter]: DIET, Species: MOUSE, Strain/Sex: C3H/HE/MALE) was “liver: tumor incidence was 100% by 52 wk and 10 tumors/animal”, the outcome (Carcinogen: DIETHYLNITROSAMINE [55-18-5], Doses [Carcinogen]: 90 MG/KG BW ONCE, Doses [Promoter]: 90 MG/KG BW DAILY FOR UP TO 90 WK STARTING 2 WK AFTER CARCINOGEN TREATMENT (STUDY DURATION: 92 WK), Route [Carcinogen]: IP INJECTION, Route [Promoter]: DIET, Species: MOUSE, Strain/Sex: B6C3F1/MALE) was “liver: promoter increased liver tumor incidence considerably, 12 tumors/animal a” and the outcome (Carcinogen: DIETHYLNITROSAMINE [55-18-5], Doses [Carcinogen]: 90 MG/KG BW ONCE, Doses [Promoter]: 90 MG/KG BW DAILY FOR UP TO 90 WK STARTING 2 WK AFTER CARCINOGEN TREATMENT (STUDY DURATION: 92 WK), Route [Carcinogen]: IP INJECTION, Route [Promoter]: DIET, Species: MOUSE, Strain/Sex: C57BL/6J/MALE) was “liver: tumor; 5 tumors/animal at 76 wk; pb increased tumors somewhat at 40-92 wk”. For the same molecule, the outcome (Carcinogen: DIETHYLNITROSAMINE, 55-18-5, Doses [Carcinogen]: 5 MG/KG IN SALINE ONCE ON DAY 15 OF AGE, Doses [Promoter]: 0, 500 MG/L FOR 24 WK BEGINNING AT 28 DAYS OF AGE (STUDY DURATION: 28 WK), Route [Carcinogen]: INTRAPERITONEAL, Route [Promoter]: ORAL, Species: MOUSE, Strain/Sex: C3H/MALE) was “liver: adenoma”, the outcome (Carcinogen: DIETHYLNITROSAMINE, 55-18-5, Doses [Carcinogen]: 10 MG/KG ONCE, Doses [Promoter]: 0, 500 PPM IN DIET FOR 140 D BEGINNING 30 D POST CARCINOGEN DOSE (STUDY DURATION: 450 D), Route [Carcinogen]: INTRAPERITONEAL, Route [Promoter]: ORAL, Species: RAT, Strain/Sex: SPRAGUE-DAWLEY/FEMALE) was “liver: adenoma or carcinoma” and the outcome (Carcinogen: DIETHYLNITROSAMINE, 55-18-5, Doses [Carcinogen]: 80 MG/KG BW ONCE, Doses [Promoter]: 0, 0.05% IN DIET FOR 39 WK BEGINNING 1 WK POST CARCINOGEN DOSE (STUDY DURATION: 40 WK), Route [Carcinogen]: INTRAPERITONEAL, Route [Promoter]: ORAL, Species: RAT, Strain/Sex: F344/MALE) was “liver: tumor”. The outcome (Carcinogen: DIETHYLNITROSAMINE, 55-18-5, Doses [Carcinogen]: 150 MG/KG ONCE, Doses [Promoter]: 0.05% IN DIET BEGINNING 2 WK POST CARCINOGEN DOSE AND CONTINUING FOR 54 WK (STUDY DURATION: 56 WK), Route [Carcinogen]: INTRAPERITONEAL, Route [Promoter]: ORAL, Species: RAT, Strain/Sex: F344/MALE) was “liver: hepatocellular carcinoma or neoplastic nodule”, the outcome (Carcinogen: DIETHYLNITROSAMINE, 55-18-5, Doses [Carcinogen]: 150 MG/KG ONCE, Doses [Promoter]: 0.05% IN DIET BEGINNING 2 WK POST CARCINOGEN DOSE FOR 11 WK FOLLOWED BY CONTROL DIET FOR DURATION OF STUDY (STUDY DURATI, Route [Carcinogen]: INTRAPERITONEAL, Route [Promoter]: ORAL, Species: RAT, Strain/Sex: F344/MALE) was “liver: hepatocellular carcinoma or neoplastic nodule” and the outcome (Carcinogen: DIETHYLNITROSAMINE, 55-18-5, Doses [Carcinogen]: 150 MG/KG ONCE, Doses [Promoter]: 0.05% IN DIET BEGINNING 11 WK POST CARCINOGEN DOSE AND CONTINUING FOR DURATION OF STUDY (STUDY DURATION: 56 WK), Route [Carcinogen]: INTRAPERITONEAL, Route [Promoter]: ORAL, Species: RAT, Strain/Sex: F344/MALE) was “liver: hepatocellular carcinoma or neoplastic nodule”. The outcome (Carcinogen: DIETHYLNITROSAMINE, Doses [Carcinogen]: SC, Doses [Promoter]: IN DIET, Route [Carcinogen]: SUBCUTANEOUS, Route [Promoter]: ORAL, Species: RAT, Strain/Sex: MALE) was “liver”, the outcome (Carcinogen: DIMETHYLNITROSAMINE, 62-75-9, Doses [Carcinogen]: 5 MG/KG IN SALINE ONCE ON DAY 15 OF AGE, Doses [Promoter]: 0, 500 MG/L FOR 24 WK BEGINNING AT 28 DAYS OF AGE (STUDY DURATION: 28 WK), Route [Carcinogen]: INTRAPERITONEAL, Route [Promoter]: ORAL, Species: MOUSE, Strain/Sex: B6C3F1/MALE) was “liver: adenoma” and the outcome (Carcinogen: DIMETHYLNITROSAMINE, 62-75-9, Doses [Carcinogen]: 5 MG/KG IN SALINE ONCE ON DAY 15 OF AGE, Doses [Promoter]: 0, 500 MG/L FOR 24 WK BEGINNING AT 28 DAYS OF AGE (STUDY DURATION: 28 WK), Route [Carcinogen]: INTRAPERITONEAL, Route [Promoter]: ORAL, Species: MOUSE, Strain/Sex: C3H/MALE) was “liver: adenoma”.
